Measurements from patent US20230339970A1, “CASEIN KINASE 1 DELTA MODULATORS” (priority 2020, published 2023).

Columns and labels:
[1] = molecular target: T1, human recombinant GST cleaved CSNK1D (Homo sapiens, UniProt P48730); test: Purified Enzyme Assay (ADP-Glo CSNK1D Kinase Assay); type: biochemical; conditions: 2 nM CSNK1D; peptide substrate 150 μM; ATP 20 μM; 45 minutes at room temperature
T1 construct: GST (cleaved yes); purchased University of Dundee clone DU 19064
Procedure, shortened: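 GST-cleaved human recombinant CSNK1D phosphorylates peptide PLSRTL-pS-VASLPGL with ATP; compounds added in dose-response, 45 min at room temperature. ADP formed measured by ADP-Glo luminescence and converted to percent activity.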

human CSNK1D = molecular target: T2, human CSNK1D (Homo sapiens, UniProt P48730); test: Whole Cell nBRET CSNK1D Binding Assay; conditions: living CHO cells stably expressing human CSNK1D tagged with nanoluciferase; NanoBret tracer 130 nM; 2 hours at 37 C
T2 construct: expressed in transfected cells
T2 sequence (P48730 whole entry): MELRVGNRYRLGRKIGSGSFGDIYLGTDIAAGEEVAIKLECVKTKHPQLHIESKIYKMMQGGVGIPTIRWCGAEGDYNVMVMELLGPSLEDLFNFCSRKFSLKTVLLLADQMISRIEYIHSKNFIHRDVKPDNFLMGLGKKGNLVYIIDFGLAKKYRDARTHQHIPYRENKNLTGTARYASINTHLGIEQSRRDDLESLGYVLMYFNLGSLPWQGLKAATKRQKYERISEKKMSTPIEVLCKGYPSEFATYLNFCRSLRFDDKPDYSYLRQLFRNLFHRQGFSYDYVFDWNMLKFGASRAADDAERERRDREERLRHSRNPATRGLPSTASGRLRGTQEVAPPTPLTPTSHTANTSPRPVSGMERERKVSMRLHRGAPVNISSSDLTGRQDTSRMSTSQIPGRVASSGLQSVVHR

T1 sequence (P48730 whole entry): as above

IC50 [1] [nM] | IC50 (human CSNK1D) [nM] | SMILES
4 | 44 | Cc1nc2[nH]ncc2c(-c2c(-c3ccc(F)cn3)nn3c2CC[C@@H]2C[C@@H]23)c1F (single isomer, unassigned) [Example 344, (5a*R,6a*S)-3-(5-Fluoro-6-methyl-1H-pyrazolo[3,4-b]pyridin-4-yl)-2-(5-fluoropyridin-2-yl)-5,5a,6,6a-tetrahydro-4H-cyclopropa[e]pyrazolo[1,5-a]pyridine]
2 | 4 | Fc1ccc(-c2nn3c(c2-c2ccnc4[nH]nc(Cl)c24)C[C@@H]2C[C@@H]23)nc1 [Example 271, (4aS,5aS)-3-(3-Chloro-1H-pyrazolo[3,4-b]pyridin-4-yl)-2-(5-fluoropyridin-2-yl)-4,4a,5,5a-tetrahydrocyclopropa[4,5]pyrrolo[1,2-b]pyrazole]
1 | 12 | Cc1cc(-c2c(-c3ccc(F)cc3)nn3c2CC[C@@H]3C)c2cn[nH]c2n1 [Example 17, 4-[(6S)-2-(4-Fluorophenyl)-6-methyl-5,6-dihydro-4H-pyrrolo[1,2-b]pyrazol-3-yl]-6-methyl-1H-pyrazolo[3,4-b]pyridine]
20 | 243 | Clc1ccc(-c2nn3c(c2-c2ccnc4[nH]ncc24)COCC3)cc1 [Example 67, 2-(4-Chlorophenyl)-3-(1H-pyrazolo[3,4-b]pyridin-4-yl)-6,7-dihydro-4H-pyrazolo[5,1-c][1,4]oxazine]
6 | 73 | Cc1cc(-c2c(-c3ccc(F)cc3)nn3c2C[C@H]2C[C@H]23)c2cn[nH]c2n1 [Example 269]
10 | 228 | Fc1ccc(-c2nn3c(c2-c2c(F)cnc4[nH]ncc24)OC[C@@H]2C[C@@H]2C3)nc1 (stereo in doubt) [Example 480, (5a*R,6a*S)-3-(5-Fluoro-1H-pyrazolo[3,4-b]pyridin-4-yl)-2-(5-fluoropyridin-2-yl)-5a,6,6a,7-tetrahydro-5H-cyclopropa[e]pyrazolo[5,1-b][1,3]oxazepine]
6 | 133 | Cc1cc(-c2c(-c3ccc(F)cn3)nn3c2CCCC3)c2cn[nH]c2n1 [Example 36, 4-[2-(5-Fluoro-2-pyridyl)-4,5,6,7-tetrahydropyrazolo[1,5-a]pyridin-3-yl]-6-methyl-1H-pyrazolo[3,4-b]pyridine]
1 | 2 | Cc1cc(-c2c(-c3ccc(F)cc3)nn3c2C[C@H](F)C3)c2cn[nH]c2n1 [Example 12, (S)-4-(5-Fluoro-2-(4-fluorophenyl)-5,6-dihydro-4H-pyrrolo[1,2-b]pyrazol-3-yl)-6-methyl-1H-pyrazolo[3,4-b]pyridine]
10 | 48 | Fc1ccc(-c2nn3c(c2-c2ccn4nccc4c2)C[C@H](F)C3)cc1 [Example 226, 5-[(5S)-5-Fluoro-2-(4-fluorophenyl)-5,6-dihydro-4H-pyrrolo[1,2-b]pyrazol-3-yl]pyrazolo[1,5-a]pyridine]
2 | 23 | Cc1cc(-c2c(-c3ccc(F)cn3)nn3c2COC(C)(C)C3)c2cn[nH]c2n1 [Example 154, 2-(5-Fluoro-2-pyridyl)-6,6-dimethyl-3-(6-methyl-1H-pyrazolo[3,4-b]pyridin-4-yl)-4,7-dihydropyrazolo[5,1-c][1,4]oxazine]
2 | 7 | [2H]C([2H])([2H])C1(C([2H])([2H])[2H])CCc2c(-c3ccnc4[nH]ncc34)c(-c3ccc(F)cn3)nn2C1 [Example 283, 4-(2-(5-fluoropyridin-2-yl)-6,6-bis(methyl-d3)-4,5,6,7-tetrahydropyrazolo[1,5-a]pyridin-3-yl)-1H-pyrazolo[3,4-b]pyridine]
2 | 28 | CC1(C)CCn2nc(-c3ccc(F)cn3)c(-c3ccnc4[nH]ncc34)c2C1 [Example 50, 4-(2-(5-Fluoropyridin-2-yl)-5,5-dimethyl-4,5,6,7-tetrahydropyrazolo[1,5-a]pyridin-3-yl)-1H-pyrazolo[3,4-b]pyridine]
1 | 7 | CC1(C)Cn2nc(-c3ccc(F)cn3)c(-c3ccnc(NC(=O)C4CC4)c3)c2CO1 [Example 134, N-(4-(2-(5-Fluoropyridin-2-yl)-6,6-dimethyl-6,7-dihydro-4H-pyrazolo[5,1-c][1,4]oxazin-3-yl)pyridin-2-yl)cyclopropanecarboxamide]
8 | 192 | C[C@H]1CCc2c(-c3ccnc4[nH]ncc34)c(-c3ccc(F)cn3)nn21 [Example 19, 4-[(6S)-2-(5-Fluoro-2-pyridyl)-6-methyl-5,6-dihydro-4H-pyrrolo[1,2-b]pyrazol-3-yl]-1H-pyrazolo[3,4-b]pyridine]
4 | 134 | CC[C@]1(C)Cn2nc(-c3ccc(F)cn3)c(-c3ccnc4[nH]ncc34)c2CO1 (single isomer, unassigned) [Example 169, (*R)-6-Ethyl-2-(5-fluoropyridin-2-yl)-6-methyl-3-(1H-pyrazolo[3,4-b]pyridin-4-yl)-6,7-dihydro-4H-pyrazolo[5,1-c][1,4]oxazine]
7 | 460 | Fc1ccc(-c2nn3c(c2-c2c(F)cnc4[nH]ncc24)CCC3)nc1 [Example 221, 5-Fluoro-4-[2-(5-fluoro-2-pyridyl)-5,6-dihydro-4H-pyrrolo[1,2-b]pyrazol-3-yl]-1H-pyrazolo[3,4-b]pyridine]
4 | 54 | CC1(C)CCc2c(-c3ccnc(N)c3)c(-c3ccc(F)cn3)nn2C1 [Example 281, 4-[2-(5-Fluoro-2-pyridyl)-6,6-dimethyl-5,7-dihydro-4H-pyrazolo[1,5-a]pyridin-3-yl]pyridin-2-amine]
111 | 2350 | Cc1cc(-c2c(-c3ccc(F)cn3)nn3c2COCC3(C)C)c2cn[nH]c2n1 [Example 123, 2-(5-Fluoro-2-pyridyl)-7,7-dimethyl-3-(6-methyl-1H-pyrazolo[3,4-b]pyridin-4-yl)-4,6-dihydropyrazolo[5,1-c][1,4]oxazine]
3 | 23 | CCC(=O)Nc1cc(-c2c(-c3ccc(F)cn3)nn3c2OCC(C)C3)ccn1 (centres unmarked) [Example 442, N-(4-(2-(5-Fluoropyridin-2-yl)-6-methyl-6,7-dihydro-5H-pyrazolo[5,1-b][1,3]oxazin-3-yl)pyridin-2-yl)propionamide]
12 | 297 | COCC1CCc2c(-c3cc(C)nc4[nH]ncc34)c(-c3ccc(F)cn3)nn2C1 (single isomer, unassigned) [Example 297, (*R)-4-[2-(5-Fluoro-2-pyridyl)-6-(methoxymethyl)-4,5,6,7-tetrahydropyrazolo[1,5-a]pyridin-3-yl]-6-methyl-1H-pyrazolo[3,4-b]pyridine]
5 | 87 | Cc1cc(-c2c(-c3ccc(F)cn3)nn3c2COC(C)(C)C3)c2c(C)n[nH]c2n1 [Example 156, 3-(3,6-Dimethyl-1H-pyrazolo[3,4-b]pyridin-4-yl)-2-(5-fluoro-2-pyridyl)-6,6-dimethyl-4,7-dihydropyrazolo[5,1-c][1,4]oxazine]
13 | 373 | Cc1nc(-c2c(-c3ccc(F)cc3)nn3c2CC[C@@]2(C3)CC2(F)F)c2cn[nH]c2n1 (single isomer, unassigned) [Example 335, (*S)-2,2-Difluoro-2′-(4-fluorophenyl)-3′-(6-methyl-1H-pyrazolo[3,4-d]pyrimidin-4-yl)-4′,5′-dihydro-7′H-spiro[cyclopropane-1,6′-pyrazolo[1,5-a]pyridine]]
17 | 87 | [2H]C([2H])([2H])[C@@]1(C(F)(F)F)Cn2nc(-c3ccc(F)cn3)c(-c3ccnc4[nH]nc(C)c34)c2CO1 (single isomer, unassigned) [Example 426, (*S)-2-(5-Fluoropyridin-2-yl)-6-(methyl-d3)-3-(3-methyl-1H-pyrazolo[3,4-b]pyridin-4-yl)-6-(trifluoromethyl)-6,7-dihydro-4H-pyrazolo[5,1-c][1,4]oxazine]
143 | > 10000 | CC1(C)Cn2nc(-c3ccncc3Cl)c(-c3ccnc4[nH]ncc34)c2CO1 [Example 162, 2-(3-Chloropyridin-4-yl)-6,6-dimethyl-3-(1H-pyrazolo[3,4-b]pyridin-4-yl)-6,7-dihydro-4H-pyrazolo[5,1-c][1,4]oxazine]
94 | 114 | CC1(CF)CCc2c(-c3ccn4nccc4c3)c(-c3ccc(F)cn3)nn2C1 (single isomer, unassigned) [Example 289, (*R)-5-[6-(Fluoromethyl)-2-(5-fluoro-2-pyridyl)-6-methyl-5,7-dihydro-4H-pyrazolo[1,5-a]pyridin-3-yl]pyrazolo[1,5-a]pyridine]
15 | > 10000 | Fc1ccc(-c2nn3c(c2-c2ccnc4[nH]c(C(F)F)cc24)COCC3)nc1 [Example 75, 3-(2-(Difluoromethyl)-1H-pyrrolo[2,3-b]pyridin-4-yl)-2-(5-fluoropyridin-2-yl)-6,7-dihydro-4H-pyrazolo[5,1-c][1,4]oxazine]
2 | 23 | Cc1cc(-c2c(-c3ccc(F)cn3)nn3c2CC(C)(C)C3)c2cn[nH]c2n1 [Example 238, 4-[2-(5-Fluoro-2-pyridyl)-5,5-dimethyl-4,6-dihydropyrrolo[1,2-b]pyrazol-3-yl]-6-methyl-1H-pyrazolo[3,4-b]pyridine]
10 | 37 | Cc1nc2[nH]nc(C)c2c(-c2c(-c3ccc(F)cn3)nn3c2CC2(C3)CC2(F)F)c1F (single isomer, unassigned) [Example 265, (*R)-1′.1′-Difluoro-3-(5-fluoro-3,6-dimethyl-1H-pyrazolo[3,4-b]pyridin-4-yl)-2-(5-fluoro-2-pyridyl)spiro[4,6-dihydropyrrolo[1,2-b]pyrazole-5,2′-cyclopropane]]
